According to patent publication US20180116993A1, “MODULATORS OF FARNESOID X RECEPTOR AND METHODS FOR THE USE THEREOF” (XIAMEN UNIVERSITY, priority 2015, published 2018):
Marks after values point to notes of the source that are not given here.

Experiments:
Type in all cases: in vivo, mouse
SOD2 = test: mRNA level of antioxidant gene SOD2 in livers of db/db mice; details: 10 mg/kg, vehicle 1 ± 0.3
[1] = tested on: collagen related genes in mice livers; test: Liver mRNA levels of collagen related genes in mice of Example 5 (RT-PCR); details: 10 mg/kg; for Relative mRNA level of α-SMA: vehicle 1 ± 0.1; for Relative mRNA level of α2(I) collagen: vehicle 1.1 ± 0.1; for Relative mRNA level of α1(I) collagen: vehicle 1.1 ± 0.2
Source text: NAFLD with excessive fat accumulation in liver will affect the blood and oxygen supplies to liver and the metabolism of liver organ, resulting in amounts of cell swelling, inflammatory infiltration and necrosis in liver. […] The levels of various collagen contents are higher in patients with liver cirrhosis. Masson's staining is a three-color staining protocol used in histology. It is widely used to study hepatic pathologies (cirrhosis). It's an authoritative and classic method to detect the existence and extend of accumulation of the collagen fiber. Sirius Red staining is also presented as a method for collagen determination. In this example, the Masson's staining and […] were performed to detect the collagen deposit in high fat diet fed db/db mice in Example 5. The Masson's staining kit (Nanjing Jiancheng Engineering Institute, China) was used for the staining of liver sections in Example 5. The Sirius red staining is performed as standard procedure. RT-PCR was used detect the expression of collagen and related genes such as α1(I) collagen, α2(I)collagen, α-SMA and MCP-1 in mice livers.

KK-Ay mice = test: Serum metabolic parameters in high-fat diet fed diabetic KK-Ay mice; details: serum, 20 mg/kg for 14 days
Source text: KK-Ay mice (KK/Upj-Ay/J) are animal models with moderate obese and diabetes with insulin resistance. KK-Ay mice develop hyperglycemia, hyperinsulinemia, glucose intolerance and obesity as well as fat accumulation in liver by eight weeks of age. Pancreatic islets are hypertrophied and the β-cells are degranulated. db/db mice (BKS.Cg-Dockr+/+ Lepr^db/Jnju) are animal models of type II diabetes. They have the phenotype of insulin resistance. These model mice were used to detect the functions of our compounds on metabolic diseases.
(§1) 8-10 weeks age mice were maintained as example 4, and fed with high-fat diet (Research Diets, D12492). Mice were i.p. injected with compounds once daily for 7, 10, 11 or 14 days as indicated in each table. After the last compounds injection, mice were fasted for 6 hours with free access to water, and then sacrificed. Part of each liver was fixed in 4% paraformaldehyde for H&E staining, and other liver tissues were stored in liquid nitrogen for enzyme activity measurement and gene expression analysis by RT-PCR. The serums were collected to measure metabolic parameters, including serum glucose, insulin, cholesterol, free fatty acid (FFA) and triglyceride levels. Serum glucose was analyzed using glucose oxidase method (Applygen, Beijing, China). The blood glucose in Table 11 was measured with Berenger blood glucose test strips (B/BRAUN, German) from blood by cutting mice tail after the 6th injection and following fast for 16 hours. Serum cholesterol and FFA were analyzed using Cholesterol Assay Kit and FFA Assay Kit (Bioassay Systems, USA; Nanjing Jiancheng Bioengineering Institute, China; FFA ELISA, R&D, USA), respectively. Serum triglyceride was analyzed using Triglyceride Assay Kit (Bioassay Systems, USA; WAKO Chemicals Inc., Japan; Applygen, Beijing, China). Liver triglyceride was analyzed using Tissue triglyceride assay kit (Applygen, Beijing, China). Serum insulin levels were measured by the Ultra Sensitive Mouse Insulin ELISA Kit (Crystal Chem. Inc., USA). RNA was isolated using Tissue RNA kit (Omega Bio-Tek, GA). The first strand cDNA were obtained by TAKARA reverse transcription kit. Real-time quantitative PCR were performed on a CFX96™ Real-Time PCR Detection System (Bio-Rad) using SYBR Premix Ex Taq™ (TAKARA). Relative mRNA expression levels were normalized to actin levels.

[2] = tested on: genes related to metabolism in liver of KK-Ay mice; test: Liver mRNA levels of metabolism genes in KK-Ay mice (RT-PCR); details: 20 mg/kg for 14 days
Experimental: as §1
Triglyceride accumulation is due to the imbalance between triglyceride synthesis and clearance. One key gene controlling hepatic lipogenesis is SREBP-1c, whose up-regulation has been implicated in occurrence of hepatic steatosis. Liver-specific inhibition of ChREBP improves hepatic steatosis and insulin resistance in ob/ob mice (see e.g., Renaud (2006) Diabetes, 55(8):2159-70.). […] The gene expression pattern in KK-Ay mice liver further explained the underlying molecular mechanism for the reduction of lipid accumulation by the FXR-ligand compounds (Table 9).

[3] = vehicle = 1, listed as tschimganine
[4] = vehicle = 1, listed as feroline

## Cc1cc(C(=O)OC2CCCCCCC2)ccc1O [XD-17, cyclooctyl 4-hydroxy-3-methylbenzoate]
SOD2
  mRNA level of SOD2 (fold): 1.8 ± 0.3 ^a fold

## CC1(C)[C@@H]2CC[C@@]1(C)[C@@H](OC(=O)c1ccc(O)cc1)C2 [Tschimgine]
[1]
  Relative mRNA level of α-SMA: 0.47 ± 0.1^a
  Relative mRNA level of α2(I) collagen: 0.75 ± 0.9^a
  Relative mRNA level of α1(I) collagen: 0.6 ± 0.13^a

## COc1cc(C(=O)O[C@H]2C[C@H]3CC[C@]2(C)C3(C)C)ccc1O [Tschimganine]
KK-Ay mice
  FFA (μM): 151 ± 14^a μM
  Glucose (mg/dl): 123 ± 10^b mg/dl
  Triglyceride (mg/dl): 134 ± 15^a mg/dl
[2]; vehicle = 1
  mRNA levels in liver, CHREBP: 0.43 ± 0.08^a
  mRNA levels in liver, FDFT1: 0.77 ± 0.06^a
  mRNA levels in liver, G6PC: 0.59 ± 0.08^a
  mRNA levels in liver, GK: 0.54 ± 0.07^a
  mRNA levels in liver, SREBP1c: 0.38 ± 0.05^a
[2]; [3]
  mRNA levels in liver, CHREBP: decreased
  mRNA levels in liver, SREBP1c: decreased
[1]
  Relative mRNA level of α-SMA: 0.56 ± 0.12^a
  Relative mRNA level of α1(I) collagen: 0.6 ± 0.12^a
[1]; vehicle 1.2 ± 0.2
  Relative mRNA level of MCP-1: 0.62 ± 0.13^a

## Nc1ccc(C(=O)OC2CCCCCCC2)cc1 [XD-16, cyclooctyl 4-aminobenzoate]
SOD2
  mRNA level of SOD2 (fold): 1.5 ± 0.1 ^b fold

## Cc1cc(C(=O)OC2CC3CCC2(C)C3(C)C)ccc1N (stereo not drawn) [XD-4, 1,7,7-trimethyl-bicyclo[2.2.1]-heptan-2-yl 4-amino-3-methylbenzoate]
SOD2
  mRNA level of SOD2 (fold): 1.6 ± 0.1 ^b fold

## C/C1=C\CCC(C)(O)/C=C/C(C(C)C)C(OC(=O)c2ccc(O)cc2)C1 (stereo not drawn) [Feroline]
KK-Ay mice
  Cholesterol (mg/dl): 116 ± 10^a mg/dl
  FFA (μM): 122 ± 30^b μM
  Glucose (mg/dl): 177 ± 16^a mg/dl
  Triglyceride (mg/dl): 136 ± 8^a mg/dl
[2]; vehicle = 1
  mRNA levels in liver, CHREBP: 0.4 ± 0.1^b
  mRNA levels in liver, FDFT1: 0.75 ± 0.1^a
  mRNA levels in liver, G6PC: 0.66 ± 0.07^a
  mRNA levels in liver, GK: 0.74 ± 0.11
  mRNA levels in liver, SREBP1c: 0.3 ± 0.08^b
[2]; [4]
  mRNA levels in liver, CHREBP: decreased
  mRNA levels in liver, SREBP1c: decreased
[1]
  Relative mRNA level of α-SMA: 0.73 ± 0.06^a
  Relative mRNA level of α2(I) collagen: 0.6 ± 0.06^a
  Relative mRNA level of α1(I) collagen: 0.37 ± 0.1^a
